Test results published in patent publication US20250325695A1, “NANOPARTICLE FOR USE IN A PROPHYLAXIS OR IN A TREATMENT OF A CALCIFICATION OF BRUCHS MEMBRANE AND DRUSEN” (Universität Münster, priority 2024, published 2025).

Assays:
hCMEC/D3 cells = experiment: WST-1 cytotoxicity assay, hCMEC/D3; assay type: cell-based, human; conditions: 24 h incubation, highest concentration of range 0.5 to 250 μg/ml, related to pure medium
Experimental: (§1) hCMEC/D3 cells were cultivated using RPMI 1640 supplemented with 1% (v/v) non-essential amino acids, 1% ([…] (200 mM), 1% (v/v) gentamicin, 1% (v/v) sodium pyruvate (100 mM), 550 nM hydrocortisone, and 20% (v/v) FBS. Jurkat cells were cultivated using RPMI 1640 supplemented with 1% (v/v) of a mixture of penicillin (100 U/ml) and streptomycin (100 μg/ml), 1% ([…] (200 mM), 1% (v/v) gentamicin, and 10% (v/v) FBS. Both cell lines were stored in T75 cell culture flasks in an incubator at a temperature of 37° C. and 100% humidity at 5% CO2 atmosphere. The cells were split twice a week at a ratio of approximately 1:3. After thawing, all experiments were conducted within a maximum of 20 passages. To evaluate the cytotoxicity of the NP formulations a WST-1 assay (Roche Diagnostics, Mannheim, Germany) was conducted on Jurkat and hCMEC/D3 cell lines. Human macrophages and HUVECs were tested applying a XTT assay (Sigma-Aldrich Chemie GmbH, Munich, Germany). After seeding Jurkat and hCMEC/D3 cells in a 96 well plate at a density of 2×10^4 cells/well (hCMEC/D3 cells suspended in 100 μL, Jurkat cells suspended in 50 μL), they were cultured for 48 h with serum containing medium. […] After 30 min, the absorbance was measured again. […] The blank measurement was subtracted and the absorbances were correlated to the controls. […]

Jurkat cells = experiment: WST-1 cytotoxicity assay, Jurkat; assay type: cell-based, human; conditions: 24 h incubation, highest concentration of range 0.5 to 250 μg/ml
Experimental: as §1

Question: For `O=C(O)CN(CCN(CC(=O)O)CC(=O)O)CCN(CC(=O)O)CC(=O)O` [DTPA, diethylenetriaminepentaacetic acid], which “cell viability, hCMEC/D3 cells” value (hCMEC/D3 cells) is on record?
Answer: 78.4±6.9%

Question: And the “cell viability, Jurkat cells” value (Jurkat cells)?
Answer: 73.0±6.6%
